The record followed here is ChEMBL document CHEMBL1287759, “Discovery of novel osthole derivatives as potential anti-breast cancer treatment” (Bioorg Med Chem Lett, 2010).

A value given as a limit tells only on which side of the number the result lay.

In one data set the test system is MDA-MB-231. Put plainly: Anticancer activity against human MDA-MB-231 assessed as inhibition of cell growth by MTT assay. Type of data set: functional, cell-based. Background: Formazan colour is commonly taken as a measure of viable cells.
For a further data set, the system named is MCF7. In words: Anticancer activity against human MCF7 assessed as inhibition of cell growth by MTT assay. The data set is classed as functional, cell-based.
A further data set relates to HEK293. In words: Cytotoxicity against human HEK293 assessed as inhibition of cell growth. Type of data set: cell-based.

As to `COc1ccc(-c2cc3ccc(OC)c(CCC(C)C)c3oc2=O)cc1OC`, the values for the IC50 with MDA-MB-231 and with MCF7 were over 50 µM and 51.6 µM, respectively.

Turning to `CC(C)CCc1c(O)ccc2ccc(=O)oc12`, the IC50 in the data set on MDA-MB-231 and with MCF7 was over 50 µM throughout.

Take `COc1ccc2cc(-c3ccc(C)cc3)c(=O)oc2c1CCC(C)C`: the concentration for half-maximal inhibition (IC50) with MDA-MB-231 was over 50 µM; in the data set on MCF7, 50.2 µM.

As to `COc1ccc2c(Oc3ccc4cc(-c5ccc(C(F)(F)F)cc5)c(=O)oc4c3CCC(C)C)cc(=O)oc2c1`, the half-maximal inhibitory concentration (IC50) with MDA-MB-231 is over 50 µM; in the data set on MCF7 it was 45.9 µM.

In the case of `CC(C)CCc1c(O)ccc2cc(-c3ccc(C(F)(F)F)cc3)c(=O)oc12`, the 50% inhibitory concentration (IC50) in the data set with MDA-MB-231 is over 50 µM; in the data set with MCF7, 42.9 µM.

As for `COc1ccc2ccc(=O)oc2c1CC=C(C)C` [OSTHOLE], the IC50 in the data set on MDA-MB-231 stood at 30.2 µM; in the data set on MCF7 it was 25.8 µM.

As for `COc1ccc2ccc(=O)oc2c1CCC(C)C`, the values for the IC50 in the data set with MDA-MB-231 and in the data set with MCF7 were over 50 µM and 47 µM, respectively.

For the compound `COc1ccc2cc(-c3cccnc3)c(=O)oc2c1CCC(C)C`, the IC50 in the data set with MDA-MB-231 and in the data set with MCF7 was over 50 µM each time.

As for `COc1ccc2cc(-c3ccc(F)cc3)c(=O)oc2c1CCC(C)C`, the IC50 in the data set on MDA-MB-231 was over 50 µM; in the data set on MCF7, 52.6 µM.

Regarding `COc1ccc2cc(-c3ccc(F)c(F)c3)c(=O)oc2c1CCC(C)C`, the concentration for half-maximal inhibition (IC50) in the data set with MDA-MB-231 is 33.6 µM; with MCF7, 27.3 µM.

For `COc1ccc2cc(-c3ccc(OC(F)(F)F)cc3)c(=O)oc2c1CCC(C)C`, the values for the concentration for half-maximal inhibition (IC50) with MDA-MB-231 and with MCF7 were 0.31 µM and 0.24 µM, respectively. In the data set with HEK293, the Activity entry is on record as “Non-toxic”.

On to `COc1ccc2c(Oc3ccc4ccc(=O)oc4c3CCC(C)C)cc(=O)oc2c1`, for which the IC50 in the data set on MDA-MB-231 and in the data set with MCF7 was over 50 µM throughout.

With `COc1ccc2cc(-c3ccc(C(F)(F)F)cc3)c(=O)oc2c1CCC(C)C`, the results for the IC50 in the data set with MDA-MB-231 and in the data set on MCF7 were 38.1 µM and 24.5 µM, respectively.

As for `COc1ccc2cc(-c3ccc(O)cc3)c(=O)oc2c1CCC(C)C`, the IC50 with MDA-MB-231 came to 4.15 µM; in the data set on MCF7, 3.23 µM.

With `CC(C)CCc1c(Oc2cc(=O)oc3cc(O)ccc23)ccc2ccc(=O)oc12`, the IC50 in the data set on MDA-MB-231 and in the data set with MCF7 was over 50 µM in each case.

With `CC(C)CCc1c(O)ccc2cc(-c3ccc(OC(F)(F)F)cc3)c(=O)oc12`, the 50% inhibitory concentration (IC50) with MDA-MB-231 amounted to 7.42 µM; in the data set with MCF7 it was 5.7 µM.

For the compound `COc1ccc2cc(-c3ccc(Cl)cc3)c(=O)oc2c1CCC(C)C`, the IC50 with MDA-MB-231 was 5.23 µM; in the data set with MCF7, 1.27 µM. For the same compound, in the data set with HEK293, the Activity result is reported as “Non-toxic”.

Usually IC50 stands for the concentration needed to halve the response being measured.
